In ChEMBL document CHEMBL3507680, “University of Dundee, Gates Library screen for HepG2 cell viability”:

assay: Human HepG2 cell viability assay in 384 well format; type: toxicity, cell-based; parameters: dose 125 nL, time 70.5 hour; concentration not given beside the values; settings: HepG2 cells, read-out: Inhibition

In order of rising cytotoxicity at 70.5 h:
1. Clc1cncc(N2CCCC2c2nnc3n2CCCCC3)n1 (stereo unspecified)  -17.1%
2. CCc1cc(NC(=O)C2CCCN(C(=O)NCC(C)C)C2)[nH]n1 (stereo unspecified)  -17.1%
3. CC(C)(C)c1noc(CCCC(=O)N2CCNC(=O)C2)n1  -16.6%
4. O=C(Nc1nncs1)N1CCC(CCc2ccc(O)cc2)CC1  -14.7%
5. CC(CC(=O)NS(C)(=O)=O)C1CCCCC1 (stereo unspecified)  -13.9%
6. Cc1cc(NC(=O)C(C)Nc2cccc(COCc3ccco3)c2)no1 (stereo unspecified)  -13.8%
7. CCC(C#N)NC(=O)COC1CCCCC1 (stereo unspecified)  -13.3%
8. O=C(CCNS(=O)(=O)c1cccnc1)N1CCOC(c2ccccc2)C1 (stereo unspecified)  -13.3%
9. Cc1cccc(-c2noc(CN3CCc4c(ncn4C4CC4)C3)n2)c1  -13.2%
10. CCN(CCS(=O)(=O)c1ccc(Cl)cc1)Cc1ccc(OC)c(OC)c1  -12.9%
11. CN1CCN(C(=O)C2CCCN2c2ncnc3ccsc23)CC1 (stereo unspecified)  -11.8%
12. O=C(O)CCN(Cc1ccc(F)c(F)c1)C(=O)C1CC1  -11.3%
13. COCC(O)CNC(=O)Nc1c(F)cc(F)cc1-c1ccccc1 (stereo unspecified)  -11.2%
14. CCc1cc(NC(=O)C2CCCN(C(=O)c3ccncc3)C2)[nH]n1 (stereo unspecified)  -10.6%
15. CN(CC(=O)Nc1ccccc1)C(=O)CN(C)c1ccc(Cl)cn1  -10.4%
16. CC(C)(C)c1ncc(CNc2ccn(CCc3ccncc3)n2)s1  -10.2%
17. CN(Cc1cccc(C(N)=O)c1)c1ncc(C(N)=O)cc1Cl  -9.7%
18. CN(Cc1cccc(C(N)=O)c1)c1ncc(C#N)cc1Cl  -9.21%
19. Cn1cc(NC(=O)N2CCN(Cc3cscn3)CC2)ccc1=O  -9.04%
20. Cn1c(SCC(O)COCc2ccccc2Cl)nnc1C1CC1 (stereo unspecified)  -8.57%
21. CCN(C1CCN(Cc2ncc(C(C)(C)C)o2)CC1)S(C)(=O)=O  -7.94%
22. CCn1cc(S(=O)(=O)NC(CO)Cc2c[nH]c3ccccc23)cn1 (stereo unspecified)  -7.79%
23. COc1ccc(CNC(=O)NCc2ccc(C)cc2)cn1  -7.46%
24. CCSc1ccc(C(=O)N2CCCCC2C(=O)NC(C)(C)C)cn1 (stereo unspecified)  -7.45%
25. Cc1ncc(CN(C)C(=O)Nc2ccc(CN3CCOC3=O)cc2)s1  -7.05%
26. NC(=O)C1CCN(C(=O)CCCc2ccc(Cl)c(Cl)c2)CC1  -6.88%
27. CCCNC(=O)CNC(=O)CC1CCCc2cc(OC)ccc21 (stereo unspecified)  -6.62%
28. CN1CC(NC(=O)CCCc2cc(Cl)sc2Cl)CCC1=O (stereo unspecified)  -6.53%
29. CCN(Cc1ccoc1)C(=O)NC1CCN(CC2CCCC2)CC1  -6.01%
30. Cc1ccc(NS(=O)(=O)c2cnn(-c3ccccc3)c2)c(C(=O)O)c1  -5.8%
31. CC(C)C1CCCN1C(=O)c1ccc(-n2ncc(C#N)c2N)cc1 (stereo unspecified)  -5.76%
32. CCc1nc2c(s1)C(N(C)C(=O)c1csnn1)CCC2 (stereo unspecified)  -5.63%
33. CCOc1cc(CNC(=O)NCc2nc(C)c(C)s2)ccn1  -5.57%
34. O=C(NC1CCN(c2ncccn2)CC1)c1sccc1C1CC1  -5.49%
35. COc1ccc(CNC(=O)NCc2nc(C)c(C)s2)cn1  -5.21%
36. CC/C=C(/C)C(=O)N1CSCC1C(=O)N(C)CCc1ccncc1 (stereo unspecified)  -4.98%
37. O=C(NS(=O)(=O)c1ccc(C2CCCCC2)cc1)C1COCCO1 (stereo unspecified)  -4.85%
38. CCc1nc(C(=O)N(CC)CC(=O)Nc2cc(Cl)ccc2C)c[nH]1  -4.72%
39. COc1ccc(CNCC2CN(C3CC3)CCO2)cc1C (stereo unspecified)  -4.72%
40. CCn1cc(NC(=O)NC(CO)Cc2c[nH]c3ccccc23)cn1 (stereo unspecified)  -4.69%
41. O=S(=O)(NC(CO)Cc1c[nH]c2ccccc12)c1cncc(F)c1 (stereo unspecified)  -4.62%
42. Cc1noc(C(C)Nc2ccc(N3CCOCC3)cc2C)n1 (stereo unspecified)  -4.53%
43. Cc1oc(NC(=O)C(C)N2CCN(C(C)(C)CO)CC2)c(C#N)c1C (stereo unspecified)  -4.43%
44. O=C(Nc1nncs1)N1CCC(c2ccc(O)cc2)CC1  -4.31%
45. CCn1cc(S(=O)(=O)NCC(OC)c2ccccc2)cn1 (stereo unspecified)  -3.94%
46. Cc1nnc(NC(=O)NCc2ccc(N3CCNC(=O)C3)cc2)s1  -3.76%
47. Cn1c(SCC(O)COCc2ccc(Cl)cc2)nnc1C1CC1 (stereo unspecified)  -3.52%
48. CC(C)c1noc(CN(CCC2CCCCC2)CC(N)=O)n1  -3.41%
49. Cc1cc(N2CCCC2c2nnc3n2CCCCC3)nc(C)n1 (stereo unspecified)  -3.38%
50. COc1ccc(N(C)C(=O)c2cccc(S(C)(=O)=O)c2)cn1  -3.33%
51. Cc1nc(N2CCC(CC(=O)N3CCCC3)CC2)c2cnn(C)c2n1  -3.28%
52. Cc1c(C(=O)NC2=NCCS2)cnn1-c1ccc(Cl)cc1  -3.08%
53. Cn1ncnc1CCNC(=O)c1cc(Cl)c(Cl)n1C  -2.76%
54. Cc1cc(Cl)cc(C)c1CNC1CCN(CC(=O)N(C)C)CC1  -2.67%
55. CCOCCC1(CNC(=O)c2ccncc2Cl)CCC1  -2.65%
56. Cc1ncc(CN(C)C(=O)Nc2cccc(C(=O)N3CCOCC3)c2)s1  -2.6%
57. CC(C)(C)OC(=O)Cn1nc(C2CC2)cc(C(F)(F)F)c1=O  -2.4%
58. COc1ccc(CNC(=O)NCc2ccc(C(N)=O)cc2)cn1  -2.22%
59. Cc1ccnc(C(NC(=O)c2sc(C)nc2C)C2CC2)n1 (stereo unspecified)  -2.09%
60. CC(C)NC(=O)CN1CCC2(CC1)OCCO2  -2.05%
61. CC(=O)c1cccc(NC(=O)NCCCc2nc(C(C)C)no2)c1  -1.88%
62. Cc1ccc(NC(=O)CN(C)C(=O)c2ccc(-n3cccc3)nc2)nc1  -1.66%
63. CCCn1cc(NC(=O)c2ccc(S(C)(=O)=O)cc2)ccc1=O  -1.34%
64. CCSc1ccc(C(=O)N2CCCCC2C(=O)N2CCCC2)cn1 (stereo unspecified)  -0.733%
65. Cc1cc(N2CCOCC2)ccc1NC(C)c1nc(C(C)C)no1 (stereo unspecified)  -0.714%
66. O=C(O)c1cnc2c(cnn2C2CCCC2)c1  -0.534%
67. Cc1nn(C)c(N2CCCN(C)CC2)c1CNC(=O)C(C)(C)C  -0.257%
68. CCOc1ccccc1NC(=O)CN(C)Cc1ccccc1Cl  -0.249%
69. CC(C)(C)S(=O)(=O)CCNC(=O)c1ccc2cc[nH]c2c1  -0.00861%
70. CCOC(=O)c1cnn(C2CCN(C(=O)CCC(C)C)CC2)c1N  0.0774%
71. c1ccc2nc(N3CCCC3c3nnc4n3CCCCC4)cnc2c1 (stereo unspecified)  0.321%
72. COC(=O)CCN(CC1CCOC1)C1CC1 (stereo unspecified)  0.428%
73. CC(C)(C)OC(=O)NCCNC(=O)c1ccc2cc[nH]c2c1  0.498%
74. CCOCCC1(CNC(=O)c2ccc(C)nc2)CCCC1  0.601%
75. CN(C(=O)c1ccc(Cl)c(S(C)(=O)=O)c1)c1ccccc1  0.806%
76. Cc1cc(NCc2csc(-c3ccsc3)n2)no1  0.878%
77. CN(C(=O)COc1ccc(-c2noc(C3CCCO3)n2)cc1)C1CC1 (stereo unspecified)  0.982%
78. CCN(CC)CC1CCN(Cc2ncc(C(C)(C)C)o2)CC1  1.11%
79. COC(=O)c1sc2cccc(F)c2c1CNC(=O)C1CC1  1.14%
80. COC(=O)N1CCC(Nc2ccc(C#N)c(Cl)c2)C1 (stereo unspecified)  1.68%
81. Cn1c(=O)oc2ccc(NC(=O)N3CCc4ccccc4C3)cc21  2.84%
82. CCCn1cc(NC2CCSCC2)cn1  2.92%
83. CCN(C(c1cccnc1)c1ccc2c(c1)CCC2)S(C)(=O)=O (stereo unspecified)  3.11%
84. COc1cc2c(cc1CNC(=O)Cc1cc(C)[nH]n1)OC(C)C2 (stereo unspecified)  3.19%
85. CC(Nc1cccc2c1OCCO2)C(=O)Nc1cccc(C#N)c1 (stereo unspecified)  3.49%
86. COC(=O)C1CN(Cc2nc(-c3ccccc3)cs2)C[C@@H](C)O1 (stereo partly specified)  3.89%
87. NC(=O)C1CCN(CCc2ccc(NCc3cccnc3)cc2)CC1  4.26%
88. CCOC(=O)c1cnn(C2CCN(C(=O)CC(C)(C)C)CC2)c1N  4.77%
89. CN(c1ccc(CNC(=O)c2c[nH]c(=O)c(Cl)c2)cc1)C1CCCCC1  5.49%
90. COc1cccc(NC(=O)CCCc2nc(C(C)C)no2)c1  5.69%
91. Cc1cc(Cl)ccc1NCc1cnn(C2CCS(=O)(=O)C2)c1 (stereo unspecified)  5.78%
92. CCOc1cncc(N2CCN(c3ccccc3F)CC2)n1  6.24%
93. CCCN(C)C(=O)c1cc(Br)cc(S(=O)(=O)N2CCOCC2)c1F  6.3%
94. NC(c1ccc(F)cc1)c1cccs1 (stereo unspecified)  6.42%
95. CCN(Cc1ccoc1)C(=O)NC1CCN(CC=C(C)C)CC1  6.72%
96. CC(NCCN1CCN(C(=O)C2CCCC2)CC1)c1nccs1 (stereo unspecified)  7.3%
97. CCn1nc(C)cc1C(=O)NCc1cc(N(C)C)nc2ccccc12  9.21%
98. NC(c1ccc(Cl)cc1)c1cccs1 (stereo unspecified)  9.24%
99. CC1CCC(NC(=O)CNC2(c3cccc(Br)c3)CCOCC2)CC1 (stereo unspecified)  9.26%
100. CCc1noc(CS(=O)(=O)C(C)c2nc(C3CC3)no2)n1 (stereo unspecified)  13.9%
101. CC(C)c1noc(CCCC(=O)Nc2cccc(F)c2)n1  15.5%
102. Cc1ccnc(C(NC(=O)c2ncoc2C)C2CC2)n1 (stereo unspecified)  16.5%
103. CC(O)CNCc1c[nH]nc1-c1cc2ccccc2o1 (stereo unspecified)  17.5%
104. CN(CC(O)COc1ccc(C(F)(F)F)cc1)C(=O)Nc1nncs1 (stereo unspecified)  19.7%
105. CC(=O)Nc1nc(CS(=O)(=O)Cc2ccccc2)cs1  20.1%
106. COCCN(C(=O)c1ccn(-c2ccc(OC)cc2)n1)C(C)C(N)=O (stereo unspecified)  20.6%
107. COc1ccc(-n2ccc(C(=O)N(C)C(C)C3(C)CC3)n2)cc1 (stereo unspecified)  21.1%
108. CCCn1cc(NC(=O)c2ccc(S(=O)(=O)CC)cc2)ccc1=O  22.4%
109. COCCCN(C)C(=O)c1cccc(Nc2cnccn2)c1  24.1%
110. Cn1cc(CC2CC(=O)N(Cc3ccc(Cl)cc3)C2=O)cn1 (stereo unspecified)  24.4%
111. Cc1nn(C)c(Cl)c1C1CCCN1CC(=O)N1CCCCC1 (stereo unspecified)  26.9%
112. CCc1nc(C(=O)N(C)CC(=O)N(C)C)nn1-c1ccccc1Cl  27.7%
113. Cc1cc(F)ccc1-n1cc(O)c(C(=O)NCC2(O)CCC2)n1  28.4%
114. O=C(Cc1ccc2c(c1)CCC2)NC1CCN(Cc2ccccc2)CC1  30.6%
115. O=S1(=O)CCC(n2cc(CNCC3(c4ccccc4)CC3)cn2)C1 (stereo unspecified)  30.7%
116. Cc1noc(CCCC(=O)N2CCCCC2c2nccs2)n1 (stereo unspecified)  32%
